In BindingDB's records for doi:10.1021/jm0704595 (University of Turin, 2007):
pEC50: −log10 of the molar value. “And” between values parts separate entries of the source, which are not always exact repeats. Equal entries are not always repeated.

Assay: Agonist activity at adrenergic beta2 receptor in guinea pig tracheal rings assessed as myorelaxing activity on carbachol-induced contraction in presence of propranolol

## Cc1c(COc2ccc(CC(C)NCC(O)c3cc(O)cc(O)c3)cc2)no[n+]1[O-] (stereo unspecified) [5-(1-hydroxy-2-{1-methyl-2-[4-(4-methyl-5-oxy-furazan-3-ylmethoxy)-phenyl]-ethylamino}-ethyl)-benzene-1,3-diol]
  pEC50: 4.26 and 4.27
